Holding throughout (format): functional, T cell line
Test [1] in a line: Induction of anti-CD3/CD28 antibodies-stimulated human T cell activation at 1 uM assessed fold increase in CD25 expression measured by ELISA assay. Background: An ELISA detects its analyte on a solid surface through an enzyme-linked reagent.
A short description of test [2]: Induction of anti-CD3 antibodies-stimulated human T cell activation at 1 uM assessed fold increase in CD25 expression measured by ELISA assay. Also: reference of the scale not given here.
The nature of test [3]: Induction of anti-CD3 antibodies-stimulated human T cell activation at 1 uM assessed fold increase in IL-2 secretion measured by ELISA assay. Also: reference of the scale not given here.
A short description of test [4]: Induction of anti-CD3/CD28 antibodies-stimulated human T cell activation at 1 uM assessed fold increase in IL-2 secretion measured by ELISA assay.
Test [5] can be described thus: Induction of anti-CD3/CD28 antibodies-stimulated human T cell activation at 4 uM assessed fold increase in CD25 expression measured by ELISA assay.
Test [6] in a line: Induction of anti-CD3 antibodies-stimulated human T cell activation at 8 uM assessed fold increase in IL-2 secretion measured by ELISA assay. Also: reference of the scale not given here.
Test [7] in a line: Induction of anti-CD3 antibodies-stimulated human T cell activation at 8 uM assessed fold increase in CD25 expression measured by ELISA assay. Also: reference of the scale not given here.
Test [8] is described as follows: Induction of anti-CD3/CD28 antibodies-stimulated human T cell activation at 0.3 uM assessed fold increase in IL-2 secretion measured by ELISA assay.
Test [9] is described as follows: Induction of anti-CD3/CD28 antibodies-stimulated human T cell activation at 4 uM assessed fold increase in IL-2 secretion measured by ELISA assay.
Test [10] can be described thus: Induction of anti-CD3/CD28 antibodies-stimulated human T cell activation at 0.3 uM assessed fold increase in CD25 expression measured by ELISA assay.

This note sets out measurements from ChEMBL document CHEMBL5050844 (2019).

Take `Cn1cnnc1[C@@H](F)[C@](C)(F)c1cccc(N2Cc3c(cccc3C(F)(F)F)C2=O)c1` (single isomer, unassigned): the “fold change (FC)” value in test [1] is reported as 1.01; in test [2] it was “<=0.6”; in [3], “<=0.05”; in test [4], 1.01; in test [5], 1.01; in test [6], 0.051. In addition, the “fold change (FC)” value in [7] is 0.601; in test [8], 1.01; in [9], 1.01; in test [10], 1.01.

As to `Cn1cnnc1[C@H](F)[C@@](C)(F)c1cccc(N2Cc3c(cc(C4CC4)cc3C(F)(F)F)C2=O)c1` (single isomer, unassigned; 482), the “fold change (FC)” value in [1] is on record as 1.01; in test [2] it was 0.601; in [3], 0.051; in test [4] it was 1.01; in test [5], 1.01; in test [6], 0.051. In addition, the “fold change (FC)” value in test [7] is 0.801; in [8], “<=1”; in test [9] it was 1.01; in test [10] it was 1.01.

For the molecule `C[C@H](Cc1nncn1C)c1cc(OCCO)nc(N2Cc3c(cccc3C(F)(F)F)C2=O)c1`, the “fold change (FC)” value in [1] is reported as 1.01; in test [2] it was 0.601; in test [3] it was 0.051; in test [4], 1.01; in test [5], 1.31; in test [6] it was “>=0.201”. Also, the “fold change (FC)” value in test [7] is recorded as “>=1.001”; in [8], 1.01; in [9], 2.51; in test [10], 1.01.

For the molecule `Cc1cc(C(=O)Nc2cccc([C@H]3C[C@H]3c3nncn3C)c2)nc(C2CC2)n1`, the “fold change (FC)” value is listed as 1.01 in test [1]; 0.801 in [2]; 0.101 in [3]; 2.51 in test [4]; 1.01 in test [5]; “>=0.201” in test [6]. For the same molecule, the “fold change (FC)” value was “>=1.001” in test [7], 1.01 in [8], 5 in test [9] and 1.01 in test [10].

For `C[C@H](Cc1nncn1C)c1cccc(NC(=O)c2cc3cccn3cn2)c1`, the “fold change (FC)” value amounted to 1.01 in [1]; 0.601 in test [2]; 0.051 in [3]; 1.01 in [4]; 1.01 in test [5]; 0.101 in test [6]. Also, the “fold change (FC)” value in [7] came to 0.801; in test [8] it was 1.01; in test [9], 1.01; in test [10] it was 1.01.

For `Cc1[nH]cnc1CC(C)c1cccc(N2Cc3c(cccc3C(F)(F)F)C2=O)c1` (stereo not given), the “fold change (FC)” value in test [1] is reported as “<=1”; in [2], “<=0.6”; in test [3], 0.101; in [4], “<=1”; in test [5], 1.01; in test [6], 0.101. The “fold change (FC)” value in test [7] was “<=0.6”; in [8], “<=1”; in [9], “<=1”; in test [10], “<=1”.

With `Cc1cc(C(=O)Nc2cccc([C@H](C)Cc3nncn3C)c2)nc2ccnn12`, the “fold change (FC)” value is listed as 1.01 in test [1]; 0.601 in test [2]; 0.101 in test [3]; 1.01 in test [4]; 1.31 in [5]; “>=0.201” in test [6]. Besides, the “fold change (FC)” value in test [7] is reported as “>=1.001”; in [8], 1.01; in test [9], 5; in test [10] it was 1.01.

Regarding `Cn1cnnc1[C@H]1CC[C@H]1c1cccc(N2Cc3c(cccc3C(F)(F)F)C2=O)c1` (racemic), the “fold change (FC)” value is “<=1” in test [1]; “<=0.6” in test [2]; “<=0.05” in test [3]; 1.01 in [4]; 1.01 in [5]; 0.101 in [6]. In addition, the “fold change (FC)” value in test [7] is “<=0.6”; in [8] it was “<=1”; in test [9], 1.01; in [10] it was “<=1”.

Regarding `Cc1ccc(C(=O)Nc2cccc([C@H](C)Sc3nncn3C)c2)nc1C`, the “fold change (FC)” value is recorded as 1.01 in test [1]; “<=0.6” in test [2]; “<=0.05” in test [3]; 2.51 in [4]; 1.31 in test [5]; “>=0.201” in test [6]. Further, the “fold change (FC)” value in test [7] was 0.601; in test [8], 1.01; in test [9] it was 2.51; in [10], “<=1”.

For `Cc1cc(C(=O)Nc2cc([C@H](C)Sc3nncn3C)ccn2)nc(C(F)(F)F)c1`, the “fold change (FC)” value was “<=1” in [1]; “<=0.6” in test [2]; “<=0.05” in [3]; 1.01 in [4]; 1.01 in test [5]; 0.051 in test [6]. In addition, the “fold change (FC)” value is listed as 0.801 in test [7], 1.01 in test [8], 1.01 in [9] and “<=1” in test [10].

With `Cc1c[nH]nc1C[C@H](C)c1cccc(N2Cc3c(cccc3C(F)(F)F)C2=O)c1` (single isomer, unassigned), the “fold change (FC)” value amounted to 1.01 in test [1]; 0.601 in [2]; 0.101 in test [3]; 1.01 in test [4]; 1.01 in test [5]; 0.151 in test [6]. The “fold change (FC)” value in test [7] is reported as 0.801; in [8], 1.01; in [9], 1.01; in [10], 1.01.

`CNS(=O)(=O)c1cc(C(=O)Nc2cccc([C@H](C)Cc3nncn3C)c2)nc(C(F)(F)F)c1`: the “fold change (FC)” value is 1.01 in test [1]; 0.801 in test [2]; 0.151 in test [3]; 1.01 in test [4]; 1.01 in test [5]; “>=0.201” in test [6]. The “fold change (FC)” value in [7] is recorded as “>=1.001”; in test [8], 1.01; in test [9], “<=1”; in [10], 1.01.

Consider `Cc1cnnn1C[C@@H](C)c1cccc(NC(=O)c2cccc(C(F)(F)F)n2)c1`, for which the “fold change (FC)” value was 1.01 in [1]; 0.601 in test [2]; 0.051 in test [3]; 1.01 in [4]; 1.01 in test [5]; 0.151 in [6]. For the same molecule, the “fold change (FC)” value was 0.801 in [7], 1.01 in test [8], 2.51 in test [9] and “<=1” in test [10].

For `Cc1nc2cc([C@H](C)Sc3nncn3C)cc(NC(=O)c3cccc(C(F)(F)F)n3)c2o1`, the “fold change (FC)” value in test [1] is 1.51; in [2], 0.601; in test [3], “<=0.05”; in [4], 5; in test [5], “>=1.76”; in [6], “>=0.201”. Also, the “fold change (FC)” value is given as “>=1.001” in test [7], 2.51 in test [8], “>=7.5” in test [9] and 1.31 in test [10].

For `Cc1ccc(C(=O)Nc2cccc(C(C)C(F)(F)c3nncn3C)c2)nc1C1CC1` (stereo not given), the “fold change (FC)” value is on record as “<=1” in [1]; 0.801 in [2]; 0.051 in test [3]; 1.01 in test [4]; 1.01 in test [5]; 0.101 in [6]. Also, the “fold change (FC)” value is “>=1.001” in test [7], 1.01 in [8], 2.51 in test [9] and “<=1” in test [10].

Consider `Cn1cnnc1[C@@H]1C[C@@H]1c1cccc(NC(=O)c2nc3c(C(F)(F)F)cccc3[nH]2)c1`, for which the “fold change (FC)” value in test [1] was 1.01; in test [2], 0.601; in test [3], 0.101; in [4] it was 1.01; in [5], 1.01; in test [6], “>=0.201”. Besides, the “fold change (FC)” value in test [7] is recorded as 0.801; in [8] it was 1.01; in test [9], 2.51; in test [10], 1.01.
